Laboratory results taken from ChEMBL document CHEMBL1145498, “A systematic interaction map of validated kinase inhibitors with Ser/Thr kinases” (Proc Natl Acad Sci U S A, 2007).

Experiments:
[1] = target: Mitogen-activated protein kinase 3 (Homo sapiens, UniProt P27361)
[2] = target: T1, Serine/threonine-protein kinase 17A (Homo sapiens) (UniProt Q9UEE5)
T1 sequence (whole entry): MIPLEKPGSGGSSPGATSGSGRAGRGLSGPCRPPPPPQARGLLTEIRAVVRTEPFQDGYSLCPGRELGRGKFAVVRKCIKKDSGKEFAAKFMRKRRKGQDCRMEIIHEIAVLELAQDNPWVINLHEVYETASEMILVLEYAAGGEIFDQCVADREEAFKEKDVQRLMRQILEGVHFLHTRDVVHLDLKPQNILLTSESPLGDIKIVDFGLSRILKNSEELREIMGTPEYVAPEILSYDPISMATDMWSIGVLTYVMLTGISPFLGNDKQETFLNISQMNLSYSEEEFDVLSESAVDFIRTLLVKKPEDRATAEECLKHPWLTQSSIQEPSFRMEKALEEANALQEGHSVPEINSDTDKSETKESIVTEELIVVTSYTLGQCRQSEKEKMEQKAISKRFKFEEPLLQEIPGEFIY

[3] = target: T2, Serine/threonine-protein kinase VRK1 (Homo sapiens) (UniProt Q99986)
T2 sequence (whole entry): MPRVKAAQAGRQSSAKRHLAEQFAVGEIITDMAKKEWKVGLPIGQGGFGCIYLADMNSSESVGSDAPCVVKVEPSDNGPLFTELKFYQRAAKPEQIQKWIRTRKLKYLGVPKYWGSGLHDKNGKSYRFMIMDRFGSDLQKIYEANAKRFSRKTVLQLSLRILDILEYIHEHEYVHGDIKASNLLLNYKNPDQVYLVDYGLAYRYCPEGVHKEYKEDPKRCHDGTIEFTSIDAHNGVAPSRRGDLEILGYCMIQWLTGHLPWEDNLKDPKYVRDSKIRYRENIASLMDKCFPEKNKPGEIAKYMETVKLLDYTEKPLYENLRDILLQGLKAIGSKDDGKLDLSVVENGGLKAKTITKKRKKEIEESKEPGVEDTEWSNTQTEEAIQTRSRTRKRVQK

[4] = target: T3, Mitogen-activated protein kinase kinase kinase 5 (Homo sapiens) (UniProt Q99683)
T3 sequence (whole entry): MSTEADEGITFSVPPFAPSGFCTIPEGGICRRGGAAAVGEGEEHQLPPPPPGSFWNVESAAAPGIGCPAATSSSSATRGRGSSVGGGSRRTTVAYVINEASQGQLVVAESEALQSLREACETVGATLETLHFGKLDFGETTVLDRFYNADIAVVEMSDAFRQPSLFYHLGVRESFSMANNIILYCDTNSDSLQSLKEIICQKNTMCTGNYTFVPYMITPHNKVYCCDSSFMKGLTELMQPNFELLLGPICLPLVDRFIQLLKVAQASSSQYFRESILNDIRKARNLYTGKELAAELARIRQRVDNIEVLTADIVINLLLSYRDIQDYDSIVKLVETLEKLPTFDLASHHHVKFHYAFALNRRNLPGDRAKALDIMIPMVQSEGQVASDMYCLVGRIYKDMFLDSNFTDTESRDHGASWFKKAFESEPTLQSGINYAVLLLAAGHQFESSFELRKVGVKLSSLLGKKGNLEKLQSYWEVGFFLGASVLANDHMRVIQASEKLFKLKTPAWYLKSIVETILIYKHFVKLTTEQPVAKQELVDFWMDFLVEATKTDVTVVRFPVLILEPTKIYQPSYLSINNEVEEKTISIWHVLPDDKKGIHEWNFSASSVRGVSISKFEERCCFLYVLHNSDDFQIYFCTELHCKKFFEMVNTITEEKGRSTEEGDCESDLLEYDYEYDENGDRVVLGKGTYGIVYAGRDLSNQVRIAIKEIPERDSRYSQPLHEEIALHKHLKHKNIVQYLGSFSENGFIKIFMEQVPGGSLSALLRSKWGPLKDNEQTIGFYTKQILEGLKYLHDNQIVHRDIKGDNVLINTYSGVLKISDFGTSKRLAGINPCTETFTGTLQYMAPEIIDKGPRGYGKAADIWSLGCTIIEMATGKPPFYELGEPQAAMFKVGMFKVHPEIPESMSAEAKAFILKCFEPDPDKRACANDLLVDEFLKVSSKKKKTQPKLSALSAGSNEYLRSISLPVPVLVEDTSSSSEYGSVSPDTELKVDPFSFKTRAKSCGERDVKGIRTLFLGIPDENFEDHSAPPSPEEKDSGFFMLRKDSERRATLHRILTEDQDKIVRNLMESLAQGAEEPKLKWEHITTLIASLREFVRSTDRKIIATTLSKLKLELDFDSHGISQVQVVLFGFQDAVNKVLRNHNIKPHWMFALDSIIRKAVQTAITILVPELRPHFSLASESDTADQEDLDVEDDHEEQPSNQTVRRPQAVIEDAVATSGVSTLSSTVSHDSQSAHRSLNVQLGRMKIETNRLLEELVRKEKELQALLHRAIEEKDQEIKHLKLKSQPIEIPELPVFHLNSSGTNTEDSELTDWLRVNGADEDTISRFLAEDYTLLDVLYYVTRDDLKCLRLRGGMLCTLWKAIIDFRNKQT

[5] = target: 5'-AMP-activated protein kinase catalytic subunit alpha-2 (Homo sapiens) (UniProt P54646)
5'-AMP-activated protein kinase catalytic subunit alpha-2 (Homo sapiens), sequence (P54646 whole entry, looked up): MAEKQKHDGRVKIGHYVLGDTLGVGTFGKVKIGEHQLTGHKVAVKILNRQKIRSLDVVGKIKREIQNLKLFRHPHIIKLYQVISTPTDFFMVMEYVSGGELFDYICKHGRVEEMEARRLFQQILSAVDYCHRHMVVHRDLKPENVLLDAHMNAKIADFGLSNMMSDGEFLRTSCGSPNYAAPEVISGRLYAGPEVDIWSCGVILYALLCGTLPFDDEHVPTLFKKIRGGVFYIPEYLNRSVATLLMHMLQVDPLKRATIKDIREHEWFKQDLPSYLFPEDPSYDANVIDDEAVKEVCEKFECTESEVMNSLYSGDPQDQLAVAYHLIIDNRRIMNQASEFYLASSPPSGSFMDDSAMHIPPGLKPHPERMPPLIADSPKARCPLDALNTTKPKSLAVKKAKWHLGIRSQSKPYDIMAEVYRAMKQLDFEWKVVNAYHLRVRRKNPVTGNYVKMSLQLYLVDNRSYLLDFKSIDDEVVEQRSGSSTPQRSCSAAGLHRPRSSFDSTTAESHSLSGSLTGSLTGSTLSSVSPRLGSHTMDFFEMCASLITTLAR

[6] = target: Serine/threonine-protein kinase 26 (Homo sapiens) (UniProt Q9P289)
Serine/threonine-protein kinase 26 (Homo sapiens), sequence (Q9P289 2-416 limits assumed): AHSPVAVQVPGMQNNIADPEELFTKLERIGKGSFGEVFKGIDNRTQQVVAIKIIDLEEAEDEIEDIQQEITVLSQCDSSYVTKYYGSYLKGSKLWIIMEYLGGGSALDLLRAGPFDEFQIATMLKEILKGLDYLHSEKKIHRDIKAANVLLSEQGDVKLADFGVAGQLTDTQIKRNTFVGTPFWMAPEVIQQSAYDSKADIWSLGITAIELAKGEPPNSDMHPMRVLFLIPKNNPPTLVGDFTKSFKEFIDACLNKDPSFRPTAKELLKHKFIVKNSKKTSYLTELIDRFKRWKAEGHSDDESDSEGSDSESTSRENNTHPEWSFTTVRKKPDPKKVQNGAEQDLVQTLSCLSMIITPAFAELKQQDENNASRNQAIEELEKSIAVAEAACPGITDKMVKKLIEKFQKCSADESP

[7] = target: Cyclin-dependent kinase 2 (Homo sapiens, UniProt P24941)
[8] = target: Death-associated protein kinase 3 (Homo sapiens) (UniProt O43293)
Death-associated protein kinase 3 (Homo sapiens), sequence (O43293 whole entry, looked up): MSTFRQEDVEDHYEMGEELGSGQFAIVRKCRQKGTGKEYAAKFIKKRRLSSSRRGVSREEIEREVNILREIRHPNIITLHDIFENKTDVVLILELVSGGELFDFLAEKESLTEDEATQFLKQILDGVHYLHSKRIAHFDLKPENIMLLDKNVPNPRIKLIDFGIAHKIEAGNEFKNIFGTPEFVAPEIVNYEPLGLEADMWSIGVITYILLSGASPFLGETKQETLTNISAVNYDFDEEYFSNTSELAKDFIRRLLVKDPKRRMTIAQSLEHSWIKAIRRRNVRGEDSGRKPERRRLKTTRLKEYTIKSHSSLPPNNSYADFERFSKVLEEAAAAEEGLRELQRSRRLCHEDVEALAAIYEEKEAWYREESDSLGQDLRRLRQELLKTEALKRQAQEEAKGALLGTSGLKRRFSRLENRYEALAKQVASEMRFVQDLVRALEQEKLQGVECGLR

Mitogen-activated protein kinase 3, sequence (P27361 whole entry): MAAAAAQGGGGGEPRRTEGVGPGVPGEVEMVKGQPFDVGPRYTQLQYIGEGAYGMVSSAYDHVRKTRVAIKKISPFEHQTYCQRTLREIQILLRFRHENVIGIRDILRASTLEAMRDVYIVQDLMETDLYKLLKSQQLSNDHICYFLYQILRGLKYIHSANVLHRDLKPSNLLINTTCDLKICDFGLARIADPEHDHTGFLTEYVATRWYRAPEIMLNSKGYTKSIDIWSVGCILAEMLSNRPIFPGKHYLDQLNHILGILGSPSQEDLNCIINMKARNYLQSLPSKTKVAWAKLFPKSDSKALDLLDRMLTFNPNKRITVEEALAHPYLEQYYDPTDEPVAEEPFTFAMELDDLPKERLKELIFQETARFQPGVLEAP

| SMILES | ΔTm [1] | ΔTm [2] | ΔTm [3] | ΔTm [4] | ΔTm [5] | ΔTm [6] | ΔTm [7] | ΔTm [8] |
| --- | --- | --- | --- | --- | --- | --- | --- | --- |
| COc1cc2ncnc(Nc3ccc(NC(=O)c4ccccc4)cc3)c2cc1OC [ANILINOQUINAZOLINE1] | 0.4 °C | 2.1 °C | 0.5 °C | 0.1 °C | 0.8 °C | 1.8 °C | -0.5 °C | 0.5 °C |
| CN(C)c1ncnc2nc[nH]c12 [DIMETHYLADENINE] | 0.4 °C | 1.5 °C | 0 °C | 2.8 °C | -0.6 °C | 0.1 °C | 0.3 °C | 0.9 °C |
| CSc1nc(-c2ccc(F)cc2)c(-c2ccnc(NC(C)c3ccccc3)c2)[nH]1 (racemic) | 0 °C | 0.1 °C | 0.9 °C | 0.4 °C | -0.4 °C | 0.7 °C | -0.5 °C | 2.4 °C |
